From patent US20230150920A1, “SALTS AND SOLID FORMS OF 4-BROMO-2,5-DIMETHOXYPHENETHYLAMINE” (priority 2021, published 2023)
“Also recorded” adds a separate entry of the source. Like-named read-outs stand apart in the source and are kept apart here.

Columns and labels:
[1] = for recrystallization of non-crystalline material upon heating (XRPD): heated at ~110° C. for 10 minutes
[2] = 93% RH, RT
[3] = Vapor stress, RT
Text: The sample was then centrifuged, while still warm, and the mother liquor was decanted. The isolated solids were air-dried and analyzed by XRPD.

[4] = Dynamic vapor sorption (DVS) with XRPD of the post-DVS sample; format: physicochemical; conditions: for hygroscopicity based on DVS data: 5 to 95% RH; for moisture gain by DVS: adsorption 5 to 95% RH; for behaviour on desorption / form change by XRPD of post-DVS sample: desorption 95 to 5% RH
Method in brief: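 Sample (about 2-25 mg depending on run) held at 25° C. and stepped in 10% RH increments 5→95% RH (adsorption) then 95→5% RH (desorption). Each step advanced at 0.01% weight change (in 5 min for later runs) or after a maximum of 1 h or 90 min; percent weight change reported.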

[5] = 25° C., listed as Non-crystalline 2C-B tartrate
[6] = 25° C., listed as non-crystalline 2C-B tartrate

COc1cc(CCN)c(OC)cc1Br.O=C(O)C(O)C(O)C(=O)O [non-crystalline 2C-B Tartrate, 4-bromo-2,5-dimethoxyphenethylamine (2C-B) tartrate]
XRPD result after heat stress ([1]; 60° C., 9 d): NC + br pk (23°) | XRPD result after heat stress ([1]; 110° C., 10 min.): Tartrate (Form 1) + | recrystallization of non-crystalline material upon heating (XRPD) [1]: recrystallizes to Tartrate (Form 1) upon heating; also recorded: crystallized to 2C-B Tartrate (Form 1) | recrystallization of non-crystalline material upon heating (XRPD) ([1]; listed as non-crystalline tartrate): crystallization to Tartrate (Form 1) was observed by XRPD | XRPD result after humidity stress [2]: Tartrate (Form 1) | XRPD result after vapor stress ([3]; EtOH): Tartrate (Form 1) | XRPD result after vapor stress ([3]; H2O): Tartrate (Form 1) | XRPD result after vapor stress ([3]; acetone): Tartrate (Form 1) | hygroscopicity based on DVS data [4, 5]: hygroscopic | hygroscopicity based on DVS data [4, 6]: hygroscopic | moisture gain by DVS [4, 5]: 11.7% | moisture gain by DVS [4, 6]: 11.7% | moisture gain by DVS above 55% RH ([4]; above 55% RH): 9.7% | behaviour on desorption / form change by XRPD of post-DVS sample ([4]; listed as Non-crystalline 2C-B tartrate): remained non-crystalline | behaviour on desorption / form change by XRPD of post-DVS sample ([4]; listed as non-crystalline 2C-B tartrate): remains non-crystalline | DVS desorption weight loss, 95-5% RH ([4]; desorption, 95-5% RH, 25° C.): 95-5% RH: 12.3% loss | post-DVS XRPD ([4]; solids after DVS cycle, NC = non-crystalline, br pk = broad peak): NC + br pk (25°) | DVS sorption, weight gain 5-55% RH ([4]; sorption, 5-55% RH, 25° C.): 5-55% RH: 2.0% gain | DVS sorption total gain ([4]; sorption, 5-95% RH, 25° C.): Total gain: 11.7% | DVS sorption, weight gain 55-95% RH ([4]; sorption, 55-95% RH, 25° C.): 55-95% RH: 9.7% gain
